Experimental data reported in patent publication US10154958B1 (King Abdulaziz University, priority 2017, dated 2018).
Marks after values point to notes of the source that are not given here.

Legend:
Trichomonas vaginalis = test: In vitro susceptibility of Trichomonas vaginalis isolates (flagellar motility); type: cell-based; conditions: 37° C.; for Mean % cells with motility after 48 hrs of aerobic contact: 500 cells/100 μL + 100 μL composition or metranidazole 25 μg/ml
Procedure: Fresh isolates of Trichomonas vaginalis were collected from 30-38 years old women. The procedure of vaginal smearing and reconstituting medium of the collected specimens were performed according to the procedure in Meingassner and Thumer, Antimicrobial agents and Chemotherapy, Vol 15, pp 254-257,1979, incorporated herein by reference in its entirety. Each isolate was adjusted to a viable count of 5,000 cells/ml, using a hemocytometer. A reconstituting diluent, Diamond's TYM supplemented with 10% horse serum, was used. The isolates were tested with the composition and a commonly used drug, metranidazole.
The number of cells in each well was 500 cells/100 μL of medium. […] Metranidazole was included as a reference at a concentration of 25 μg/ml. Metranidazole (100 μL) was also kept in contact with 500 cells/100 μL of the 20 isolates of Trichomonas vaginalis in the presence of oxygen for 48 hours at 37° C. Control triplicate wells were included in which the Trichomonas vaginalis cells of each of the 20 isolates were put in contact with equal volume of Diamond's TYM supplemented with 10% horse serum. The motility of flagella of the cells was observed after 48 hrs under an inverted-phase contrast microscope. The percentage of cells losing flagellar motility was determined.

Gardnerella vaginalis = test: Disc diffusion susceptibility of Gardnerella vaginalis isolates; type: cell-based; conditions: of the 20 isolates of Gardnerella vaginalis; reference disc 5 mcg/disc
Procedure: Twenty isolates of each of Gardnerella vaginalis and Candida albicans were collected from human vaginosis cases. […] The disc diffusion method was used. For Gardnerella vaginalis, the Mueller-Hinton agar supplemented with 5% human serum medium was used.
The discs were incubated aerobically for 48 hrs at 35° C., the diameter of the discs inhibition zones were measured in millimeter, and interpreted by using the chart provided by Hudzicki, American Society for Microbiology, www.asm.org.2013, incorporated herein by reference in its entirety.

## Cc1ncc([N+](=O)[O-])n1CCO [Metranidazole, metranidazole]
Trichomonas vaginalis; isolate 1
  Mean % cells with motility after 48 hrs of aerobic contact: 4.0%
Trichomonas vaginalis; isolate 2
  Mean % cells with motility after 48 hrs of aerobic contact: 0.0%
Trichomonas vaginalis; isolate 3
  Mean % cells with motility after 48 hrs of aerobic contact: 1.5%
Trichomonas vaginalis; isolate 4
  Mean % cells with motility after 48 hrs of aerobic contact: 5.4%
Trichomonas vaginalis; isolate 5
  Mean % cells with motility after 48 hrs of aerobic contact: 7.4%
Trichomonas vaginalis; isolate 6
  Mean % cells with motility after 48 hrs of aerobic contact: 0.0%
Trichomonas vaginalis; isolate 7
  Mean % cells with motility after 48 hrs of aerobic contact: 9.3%
Trichomonas vaginalis; isolate 8
  Mean % cells with motility after 48 hrs of aerobic contact: 5.6%
Trichomonas vaginalis; isolate 9
  Mean % cells with motility after 48 hrs of aerobic contact: 8.4%
Trichomonas vaginalis; isolate 10
  Mean % cells with motility after 48 hrs of aerobic contact: 10.4%
Trichomonas vaginalis; isolate 11
  Mean % cells with motility after 48 hrs of aerobic contact: 0.0%
Trichomonas vaginalis; isolate 12
  Mean % cells with motility after 48 hrs of aerobic contact: 4.2%
Trichomonas vaginalis; isolate 13
  Mean % cells with motility after 48 hrs of aerobic contact: 0.0%
Trichomonas vaginalis; isolate 14
  Mean % cells with motility after 48 hrs of aerobic contact: 6.7%
Trichomonas vaginalis; isolate 15
  Mean % cells with motility after 48 hrs of aerobic contact: 8.5%
Trichomonas vaginalis; isolate 16
  Mean % cells with motility after 48 hrs of aerobic contact: 11.4%
Trichomonas vaginalis; isolate 17
  Mean % cells with motility after 48 hrs of aerobic contact: 7.4%
Trichomonas vaginalis; isolate 18
  Mean % cells with motility after 48 hrs of aerobic contact: 8.2%
Trichomonas vaginalis; isolate 19
  Mean % cells with motility after 48 hrs of aerobic contact: 9.7%
Trichomonas vaginalis; isolate 20
  Mean % cells with motility after 48 hrs of aerobic contact: 1.2%
Trichomonas vaginalis; mean of means of the 20 isolates, composition or metranidazole 25 μg/ml
  Mean % cells with motility after 48 hrs of aerobic contact, Mean of Means: 5.5^a %
Gardnerella vaginalis
  number of isolates resistant to the reference disc: one
